Literature values as cited in patent US11103501B2, “Dry powder formulation of azole derivative for inhalation” (priority 2011, dated 2021).

- water solubility: < 1 µg/mL
- solubility (pII 7): < 1 µg/mL
SMILES: CCC(C)n1ncn(-c2ccc(N3CCN(c4ccc(OCC5COC(Cn6cncn6)(c6ccc(Cl)cc6Cl)O5)cc4)CC3)cc2)c1=O (centres unmarked) [itraconazole]
